According to patent publication US12122767B2, “Bicyclic heterocycles as FGFR inhibitors” (Incyte Corporation, priority 2019, dated 2024):

Biological target: T1, FGFR3 enzyme (Millipore) (Homo sapiens, UniProt P22607)
T1 construct: purchased Millipore
Test: FGFR Enzymatic Assay (peptide phosphorylation, FRET)
Assay type: biochemical
Conditions: pre-incubated for 4 hours; ATP 140 μM, peptide 500 nM
Description: The inhibitor potency of the exemplified compounds was measured in an enzyme assay that measures peptide phosphorylation using FRET measurements to detect product formation. Inhibitors were serially diluted in DMSO and a volume of 0.5 μL was transferred to the wells of a 384-well plate. For FGFR3, a 10 μL volume of FGFR3 enzyme (Millipore) diluted in assay buffer (50 mM HEPES, 10 mM MgCl2, 1 mM EGTA, 0.01% Tween-20, 5 mM DTT, pH 7.5) was added to the plate and pre-incubated for a time between 5-10 minutes and up to 4 hours. Appropriate controls (enzyme blank and enzyme with no inhibitor) were included on the plate. The assay was initiated by the addition of a 10 μL solution containing biotinylated EQEDEPEGDYFEWLE peptide substrate (SEQ ID NO: 1) and ATP (final concentrations of 500 nM and 140 μM respectively) in assay buffer to the wells. The plate was incubated at 25° C. for 1 hr. The reactions were ended with the addition of 10 μL/well of quench solution (50 mM Tris, 150 mM NaCl, 0.5 mg/mL BSA, pH 7.8; 30 mM EDTA with Perkin Elmer Lance Reagents at 3.75 nM Eu-antibody PY20 and 180 nM APC-Streptavidin). The plate was allowed to equilibrate for ˜1 hr before scanning the wells on a PheraStar plate reader (BMG Labtech).
GraphPad prism3 was used to analyze the data. The IC50 values were derived by fitting the data to the equation for a sigmoidal dose-response with a variable slope. Y=Bottom+(Top-Bottom)/(1+10^((Log IC50−X)*HillSlope)) where X is the logarithm of concentration and Y is the response.
Table 1 provides IC50 data for compounds of the invention assayed in the FGFR Enzymatic Assay after dilution in assay buffer, added to the plate and pre-incubated for 4 hours.

T1 sequence (P22607 23-806): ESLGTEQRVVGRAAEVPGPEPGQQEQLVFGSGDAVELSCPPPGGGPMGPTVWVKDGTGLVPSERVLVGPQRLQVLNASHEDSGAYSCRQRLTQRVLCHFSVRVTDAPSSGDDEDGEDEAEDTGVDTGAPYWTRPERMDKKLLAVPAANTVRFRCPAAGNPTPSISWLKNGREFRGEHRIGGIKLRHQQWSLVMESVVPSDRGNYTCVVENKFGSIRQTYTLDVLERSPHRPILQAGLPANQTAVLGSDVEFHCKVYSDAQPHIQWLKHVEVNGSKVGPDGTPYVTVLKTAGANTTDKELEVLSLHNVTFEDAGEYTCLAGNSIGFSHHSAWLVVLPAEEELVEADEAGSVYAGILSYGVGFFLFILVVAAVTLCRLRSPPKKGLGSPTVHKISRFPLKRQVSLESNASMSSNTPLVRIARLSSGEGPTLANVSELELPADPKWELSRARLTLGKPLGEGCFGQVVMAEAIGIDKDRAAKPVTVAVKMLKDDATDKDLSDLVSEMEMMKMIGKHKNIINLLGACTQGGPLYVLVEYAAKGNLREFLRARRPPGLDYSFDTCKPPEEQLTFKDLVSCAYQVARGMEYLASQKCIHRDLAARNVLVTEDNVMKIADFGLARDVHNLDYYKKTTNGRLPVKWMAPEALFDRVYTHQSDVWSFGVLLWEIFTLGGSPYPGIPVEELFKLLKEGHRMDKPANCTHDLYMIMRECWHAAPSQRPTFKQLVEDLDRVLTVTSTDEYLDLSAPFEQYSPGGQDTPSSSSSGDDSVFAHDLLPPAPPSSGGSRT

CCNC(=O)N1CC(n2cc(-c3n[nH]c4cc(OC)c(C(=O)Nc5c(C)cccc5C)cc34)cn2)C1 [Example 30, N-(2,6-Dimethylphenyl)-3-(1-(1-(ethylcarbamoyl)azetidin-3-yl)-1H-pyrazol-4-yl)-6-methoxy-1H-indazole-5-carboxamide] and COc1cc2[nH]nc(-c3cnn(C4CN(C(C)=O)C4)c3)c2cc1C(=O)Nc1c(C)cccc1C [Example 33, 3-(1-(1-Acetylazetidin-3-yl)-1H-pyrazol-4-yl)-N-(2,6-dimethylphenyl)-6-methoxy-1H-indazole-5-carboxamide] cannot be ordered by IC50: < 10 nM for the first, < 10 nM for the second.

Compared with COc1cc2[nH]nc(-c3cnn(CC4CCNCC4)c3)c2cc1C(=O)Nc1c(C)cccc1C [Example 39, N-(2,6-Dimethylphenyl)-6-methoxy-3-(1-(piperidin-4-ylmethyl)-1H-pyrazol-4-yl)-1H-indazole-5-carboxamide], COc1cc2[nH]nc(-c3cnn(C4CC4)c3)c2cc1C(=O)Nc1c(C)cccc1C [Example 44, 3-(1-Cyclopropyl-1H-pyrazol-4-yl)-N-(2,6-dimethylphenyl)-6-methoxy-1H-indazole-5-carboxamide] is lower in IC50: 10 to 30 nM for the first, < 10 nM for the second. The second is the more potent here.

COc1cc2[nH]nc(-c3cnn(C4CN(C(=O)N(C)C)C4)c3)c2cc1C(=O)Nc1c(C)cccc1C [Example 22, 3-(1-(1-(Dimethylcarbamoyl)azetidin-3-yl)-1H-pyrazol-4-yl)-N-(2,6-dimethylphenyl)-6-methoxy-1H-indazole-5-carboxamide] and COc1cc2[nH]nc(-c3cnn(C4CN(S(C)(=O)=O)C4)c3)c2cc1C(=O)Nc1c(C)cccc1C [Example 32, N-(2,6-Dimethylphenyl)-6-methoxy-3-(1-(1-(methylsulfonyl)azetidin-3-yl)-1H-pyrazol-4-yl)-1H-indazole-5-carboxamide] cannot be ordered by IC50: < 10 nM for the first, < 10 nM for the second.

CCc1cccc(CC)c1NC(=O)c1cc2c(-c3cnn(C)c3)n[nH]c2cc1OC [Example 7, N-(2,6-Diethylphenyl)-6-methoxy-3-(1-methyl-1H-pyrazol-4-yl)-1H-indazole-5-carboxamide] and CCc1cccc(C)c1NC(=O)c1cc2c(-c3cnn(C)c3)n[nH]c2cc1OC [Example 6, N-(2-Ethyl-6-methylphenyl)-6-methoxy-3-(1-methyl-1H-pyrazol-4-yl)-1H-indazole-5-carboxamide] cannot be ordered by IC50: < 10 nM for the first, < 10 nM for the second.

Compared with COc1cc2[nH]nc(-c3cnn(Cc4ccccn4)c3)c2cc1C(=O)Nc1c(C)cccc1C [Example 37, N-(2,6-Dimethylphenyl)-6-methoxy-3-(1-(pyridin-2-ylmethyl)-1H-pyrazol-4-yl)-1H-indazole-5-carboxamide], COc1cc2[nH]nc(-c3cnn(-c4ccccn4)c3)c2cc1C(=O)Nc1c(C)cccc1C [Example 42, N-(2,6-Dimethylphenyl)-6-methoxy-3-(1-(pyridin-2-yl)-1H-pyrazol-4-yl)-1H-indazole-5-carboxamide] is higher in IC50: < 10 nM for the first, 30 to 200 nM for the second.

COC(=O)N1CCC(n2cc(-c3n[nH]c4cc(OC)c(C(=O)Nc5c(C)cccc5C)cc34)cn2)CC1 [Example 24, Methyl 4-(4-(5-((2,6-dimethylphenyl)carbamoyl)-6-methoxy-1H-indazol-3-yl)-1H-pyrazol-1-yl)piperidine-1-carboxylate] and COc1cc2[nH]nc(-c3cnn(C4CCN(C(C)=O)CC4)c3)c2cc1C(=O)Nc1c(C)cccc1C [Example 25, 3-(1-(1-Acetylpiperidin-4-yl)-1H-pyrazol-4-yl)-N-(2,6-dimethylphenyl)-6-methoxy-1H-indazole-5-carboxamide] cannot be ordered by IC50: < 10 nM for the first, < 10 nM for the second.

Cc1cccc(F)c1NC(=O)c1cc2c(-c3cnn(C)c3)n[nH]c2cc1Cl [Example 15, 6-Chloro-N-(2-fluoro-6-methylphenyl)-3-(1-methyl-1H-pyrazol-4-yl)-1H-indazole-5-carboxamide] and Cc1cccc(C)c1NC(=O)c1cc2c(-c3cnn(C)c3)n[nH]c2cc1Cl [Example 13, 6-Chloro-N-(2,6-dimethylphenyl)-3-(1-methyl-1H-pyrazol-4-yl)-1H-indazole-5-carboxamide] cannot be ordered by IC50: ≥ 200 nM for the first, 30 to 200 nM for the second.

COc1cc2[nH]nc(-c3ccc(N4CCN(C(C)=O)CC4)cc3)c2cc1C(=O)Nc1c(C)cccc1C [Example 20, 3-(4-(4-Acetylpiperazin-1-yl)phenyl)-N-(2,6-dimethylphenyl)-6-methoxy-1H-indazole-5-carboxamide] and COc1cc2[nH]nc(-c3cnn(C)c3)c2cc1C(=O)Nc1c(C)cccc1C [Example 1, N-(2,6-Dimethylphenyl)-6-methoxy-3-(1-methyl-1H-pyrazol-4-yl)-1H-indazole-5-carboxamide] cannot be ordered by IC50: < 10 nM for the first, < 10 nM for the second.

First: COc1cc2[nH]nc(-c3cnn(Cc4cccnc4)c3)c2cc1C(=O)Nc1c(C)cccc1C [Example 41, N-(2,6-Dimethylphenyl)-6-methoxy-3-(1-(pyridin-3-ylmethyl)-1H-pyrazol-4-yl)-1H-indazole-5-carboxamide]
Second: CCCn1cc(-c2n[nH]c3cc(OC)c(C(=O)Nc4c(C)cccc4C)cc23)cn1 [Example 45, N-(2,6-Dimethylphenyl)-6-methoxy-3-(1-propyl-1H-pyrazol-4-yl)-1H-indazole-5-carboxamide]
The IC50 of the first is higher: 10 to 30 nM for the first, < 10 nM for the second.

COc1cc2[nH]nc(-c3cnn(CCN4CCOCC4)c3)c2cc1C(=O)Nc1c(C)cccc1C [Example 40, N-(2,6-Dimethylphenyl)-6-methoxy-3-(1-(2-morpholinoethyl)-1H-pyrazol-4-yl)-1H-indazole-5-carboxamide] and COc1cc2[nH]nc(-c3cnn(CCO)c3)c2cc1C(=O)Nc1c(C)cccc1C [Example 38, N-(2,6-Dimethylphenyl)-3-(1-(2-hydroxyethyl)-1H-pyrazol-4-yl)-6-methoxy-1H-indazole-5-carboxamide] fall in the same range of IC50: 10 to 30 nM for the first, 10 to 30 nM for the second.

COc1cc2[nH]nc(-c3cnn(C)c3)c2cc1C(=O)Nc1c(C)cccc1F [Example 8, N-(2-Fluoro-6-methylphenyl)-6-methoxy-3-(1-methyl-1H-pyrazol-4-yl)-1H-indazole-5-carboxamide] and COc1cc2[nH]nc(-c3cnn(C)c3)c2cc1C(=O)Nc1c(F)cccc1Cl [Example 2, N-(2-Chloro-6-fluorophenyl)-6-methoxy-3-(1-methyl-1H-pyrazol-4-yl)-1H-indazole-5-carboxamide] cannot be ordered by IC50: < 10 nM for the first, < 10 nM for the second.

COc1cc(C)c(NC(=O)c2cc3c(-c4cnn(C)c4)n[nH]c3cc2OC)c(C)c1 [Example 10, 6-Methoxy-N-(4-methoxy-2,6-dimethylphenyl)-3-(1-methyl-1H-pyrazol-4-yl)-1H-indazole-5-carboxamide] and COc1cc2[nH]nc(-c3cnn(C)c3)c2cc1C(=O)Nc1c(C)cc(N(C)C)cc1C [Example 29, N-(4-(Dimethylamino)-2,6-dimethylphenyl)-6-methoxy-3-(1-methyl-1H-pyrazol-4-yl)-1H-indazole-5-carboxamide] fall in the same range of IC50: 30 to 200 nM for the first, 30 to 200 nM for the second.

Compared with CCNC(=O)Cn1cc(-c2n[nH]c3cc(OC)c(C(=O)Nc4c(C)cccc4C)cc23)cn1 [Example 19, N-(2,6-Dimethylphenyl)-3-(1-(2-(ethylamino)-2-oxoethyl)-1H-pyrazol-4-yl)-6-methoxy-1H-indazole-5-carboxamide], Cc1cc2[nH]nc(-c3cnn(C)c3)c2cc1C(=O)Nc1c(C)cccc1C [Example 12, N-(2,6-Dimethylphenyl)-6-methyl-3-(1-methyl-1H-pyrazol-4-yl)-1H-indazole-5-carboxamide] is higher in IC50: 10 to 30 nM for the first, ≥ 200 nM for the second.

First: COc1cc2[nH]nc(-c3cnn(C)c3)c2cc1C(=O)Nc1c(C)cc(NS(C)(=O)=O)cc1C [Example 27, N-(2,6-Dimethyl-4-(methylsulfonamido)phenyl)-6-methoxy-3-(1-methyl-1H-pyrazol-4-yl)-1H-indazole-5-carboxamide]
Second: COc1cc2[nH]nc(-c3cnn(C)c3)c2cc1C(=O)Nc1c(C)cc(NC(C)=O)cc1C [Example 28, N-(4-Acetamido-2,6-dimethylphenyl)-6-methoxy-3-(1-methyl-1H-pyrazol-4-yl)-1H-indazole-5-carboxamide]
The IC50 of the first is lower: 10 to 30 nM for the first, 30 to 200 nM for the second. The first is the more potent here.

Compared with Cc1cc2[nH]nc(-c3cnn(C)c3)c2cc1C(=O)Nc1c(C)cccc1F [Example 14, N-(2-Fluoro-6-methylphenyl)-6-methyl-3-(1-methyl-1H-pyrazol-4-yl)-1H-indazole-5-carboxamide], COc1cc2[nH]nc(-c3cnn(C4CC4)c3)c2cc1C(=O)Nc1c(F)cccc1Cl [Example 18, N-(2-Chloro-6-fluorophenyl)-3-(1-cyclopropyl-1H-pyrazol-4-yl)-6-methoxy-1H-indazole-5-carboxamide] is lower in IC50: ≥ 200 nM for the first, 10 to 30 nM for the second.

First: COc1cc2[nH]nc(-c3cnn(C)c3)c2cc1C(=O)Nc1c(C)cc(C#N)cc1C [Example 11, N-(4-Cyno-2,6-dimethylphenyl)-6-methoxy-3-(1-methyl-1H-pyrazol-4-yl)-1H-indazole-5-carboxamide]
Second: COc1cc2[nH]nc(-c3cnn(C4CCOCC4)c3)c2cc1C(=O)Nc1c(C)cccc1C [Example 35, N-(2,6-Dimethylphenyl)-6-methoxy-3-(1-(tetrahydro-2H-pyran-4-yl)-1H-pyrazol-4-yl)-1H-indazole-5-carboxamide]
The IC50 of the first is higher: 10 to 30 nM for the first, < 10 nM for the second. The second is the more potent here.
